Reference: publication PMC12126525, “Mechanism of ATP hydrolysis in the Hsp70 BiP nucleotide-binding domain” (Nature Communications, 2025)
“And” between values parts separate entries of the source, which are not always exact repeats. Equal entries are not always repeated.

Legend:
BiP = details: cited from earlier work
BiP NBD = BiP NBD (Homo sapiens, UniProt P11021); assay: Global kinetic fit (MCMC) of four NMR data sets (E1+E2, E1 only, E2 only, no recycling): functional cycle kinetic parameters; assay type: biochemical; parameters: His6 (N, cleaved yes); made in house; host or cells: E. coli BL21-(DE3)-Lemo, pET28a vector; details: for Kd: standard buffer
Text: It comprises 5 different states that are connected by […] reaction equations of first and second order. We consider ATP hydrolysis an irreversible reaction without backreaction. The other pathways are reversible dissociation/association reactions, arbitrarily labeled 1–5. The microscopic equations (elementary reactions) for these 11 reactions are given by:1 NBD^ATPkcat→NBD^ADP⋅Pi 2 NBD^ATPkoff1⇌kon1NBD^apo+ATP 3 NBD^ADPkoff2⇌kon2NBD^apo+ADP 4 NBD^Pikoff3⇌kon3NBD^apo+Pi 5 NBD^ADP⋅Pikoff4⇌kon4NBD^ADP+Pi 6 NBD^ADP⋅Pikoff5⇌kon5NBD^Pi+ADP With the forward and backward kinetic rate constants connected by thermodynamic equilibrium dissociation constants given by7 koffi/koni=KDifori=1,…,5 For each of the 5 states, a differential equation describing the conservation of mass can be derived:8 d/dtNBD^apo=+koff1NBD^ATP+koff2NBD^ADP+koff3NBD^Pi−kon1NBD^apoATP−kon2NBD^apoADP−kon3NBD^apoPi 9 d/dt[NBD^ATP]=+kon1NBD^apoATP−koff1NBD^ATP−kcatNBD^ATP 10 d/dtNBD^ADP⋅Pi=+kcatNBD^ATP+kon4NBD^ADPPi+kon5NBD^PiADP−koff4NBD^ADP⋅Pi−koff5NBD^ADP⋅Pi 11 d/dtNBD^ADP=+koff4NBD^ADP⋅Pi+kon2NBD^apoADP−koff2NBD^ADP−kon4NBD^ADPPi 12 d/dtNBD^Pi=+koff5NBD^ADP⋅Pi+kon3NBD^apoPi−koff3NBD^Pi−kon5NBD^PiADP Furthermore, we have the total amount13 NBD^apo+NBD^ATP+NBD^ADP+NBD^ADP⋅Pi+NBD^Pi=NBD0 These equations can be used for numerical fitting of steady-state and non-steady-state experimental data.
The experimental data of the BiP NBD in-cyclo experiments were fitted using standard reaction kinetics. Free variables were the kon and koff rates for the five reversible reaction and the catalytic rate constant (kcat) for the irreversible ATP hydrolysis step (See theory section). The initial values for kcat , koff2 , koff4 and koff5 were set to the value determined experimentally with in-cyclo experiment. The initial value for koff3 was taken from the EXSY experiment and the initial range for koff1 and KD1 were taken from the literature. […] The prior distributions were defined based on the average state occupancy resolved from the in-cyclo experiment: tNBD·ADP, tNBD, tNBD·ADP·Pi and tNBD·Pi. Numerical integration of the corresponding differential equations for the reaction scheme (described in Fig. 2a) was performed using a custom Python module (Kinetic).
To fully determine all kinetic parameters, the data fitting procedure was conducted as a global fit of four independent experimental datasets: (i) the in-cyclo experiment with ATP regeneration and phosphate removal, (ii) ATP regeneration only, (iii) single batch experiments starting from pure ATP with the phosphate removal system, and (iv) single batch experiments starting from pure ATP.
Fitting of the functional cycle kinetic parameters. a-d, Global fit of the experimental data presented in the manuscript E1 +E2 (a), E1 (b), E2 (c), no recycling system (d). Data points are shown as circles NBD·ADP (blue), NBD·ADP·PI (dark blue) and NBD·ATP (red) (left) and pyruvate (grey), glucose-1-P (lavender), ATP (red) and ADP (blue) (right). The fit of the data is shown as lines in the same color as the data points. Data points and standard deviation for three independent experiments. e, Numerical stability of the global fitting of the experimental data.

[1] = Supplementary Fig 10a, time 5 min
[2] = Supplementary Fig 10a, time 11 min
[3] = Supplementary Fig 10a, time 17 min
[4] = Supplementary Fig 10a, time 23 min
[5] = Supplementary Fig 10a, time 29 min
[6] = Supplementary Fig 10a, time 35 min
[7] = Supplementary Fig 10a, time 41 min
[8] = Supplementary Fig 10a, time 47 min
[9] = Supplementary Fig 10a, time 53 min
[10] = Supplementary Fig 10a, time 59 min
[11] = Supplementary Fig 10a, time 65 min
[12] = Supplementary Fig 10a, time 71 min
[13] = Supplementary Fig 10b, time 10 min
[14] = Supplementary Fig 10b, time 16 min
[15] = Supplementary Fig 10b, time 22 min
[16] = Supplementary Fig 10b, time 28 min
[17] = Supplementary Fig 10b, time 34 min
[18] = Supplementary Fig 10b, time 40 min
[19] = Supplementary Fig 10b, time 46 min
[20] = Supplementary Fig 10b, time 52 min
[21] = Supplementary Fig 10b, time 58 min
[22] = Supplementary Fig 10b, time 64 min
[23] = Supplementary Fig 10b, time 70 min
[24] = Supplementary Fig 10c, time 5 min
[25] = Supplementary Fig 10c, time 11 min
[26] = Supplementary Fig 10c, time 17 min
[27] = Supplementary Fig 10c, time 23 min
[28] = Supplementary Fig 10c, time 29 min
[29] = Supplementary Fig 10c, time 35 min
[30] = Supplementary Fig 10c, time 41 min
[31] = Supplementary Fig 10c, time 47 min
[32] = Supplementary Fig 10c, time 53 min
[33] = Supplementary Fig 10d, time 5 min
[34] = Supplementary Fig 10d, time 11 min
[35] = Supplementary Fig 10d, time 17 min
[36] = Supplementary Fig 10d, time 23 min
[37] = Supplementary Fig 10d, time 29 min
[38] = Supplementary Fig 10d, time 35 min
[39] = Supplementary Fig 10d, time 41 min
[40] = Supplementary Fig 10d, time 47 min
[41] = Supplementary Fig 10d, time 53 min
[42] = reactions 1-3 (koff1, koff2, koff3): release from binary complex, T = 37 °C
[43] = reactions 1-3: binding to apo NBD, T = 37 °C
[44] = reactions 1-3: ligand leaving the binary complex to give apo NBD, T = 37 °C

BiP NBD, sequence (P11021 19-406): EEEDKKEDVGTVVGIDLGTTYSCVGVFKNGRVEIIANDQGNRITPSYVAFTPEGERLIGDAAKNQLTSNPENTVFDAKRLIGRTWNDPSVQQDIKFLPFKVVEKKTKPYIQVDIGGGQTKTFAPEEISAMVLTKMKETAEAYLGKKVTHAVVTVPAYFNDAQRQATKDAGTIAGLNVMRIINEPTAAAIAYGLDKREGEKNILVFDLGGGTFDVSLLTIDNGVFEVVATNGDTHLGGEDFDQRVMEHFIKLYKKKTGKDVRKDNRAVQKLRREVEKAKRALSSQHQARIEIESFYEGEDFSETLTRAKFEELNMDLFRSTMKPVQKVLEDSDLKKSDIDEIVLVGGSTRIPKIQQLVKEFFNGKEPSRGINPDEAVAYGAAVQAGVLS

Structure (SMILES): [Ca+2] [calcium]
- increase of the MABA-ADP-bound lifetime (BiP; concentration-dependent): up to 4 fold
- decrease of the ATP hydrolysis rate of BiP (BiP; physiological calcium levels compared to no calcium): 2 fold

Structure (SMILES): Nc1ncnc2c1ncn2[C@@H]1O[C@H](COP(=O)(O)OP(=O)(O)OP(=O)(O)O)[C@@H](O)[C@H]1O [ATP]
- kcat (BiP NBD; NBD·ATP → NBD·ADP·Pi, T = 37 °C): 0.065 ± 0.013 s⁻¹ and 0.065 ± 0.01 s⁻¹
- species (BiP NBD; [1]): 4931 µM
- species (BiP NBD; [2]): 4934 µM
- species (BiP NBD; [3]): 4884 µM
- species (BiP NBD; [4]): 4899 µM
- species (BiP NBD; [5]): 4939 µM
- species (BiP NBD; [6]): 4943 µM
- species (BiP NBD; [7]): 4963 µM
- species (BiP NBD; [8]): 4978 µM
- species (BiP NBD; [9]): 5001 µM
- species (BiP NBD; [10]): 5024 µM
- species (BiP NBD; [11]): 5048 µM
- species (BiP NBD; [12]): 5079 µM
- species (BiP NBD; [13]): 5016 µM
- species (BiP NBD; [14]): 4951 µM
- species (BiP NBD; [15]): 4989 µM
- species (BiP NBD; [16]): 4949 µM
- species (BiP NBD; [17]): 5005 µM
- species (BiP NBD; [18]): 4923 µM
- species (BiP NBD; [19]): 4996 µM
- species (BiP NBD; [20]): 4916 µM
- species (BiP NBD; [21]): 4954 µM
- species (BiP NBD; [22]): 4989 µM
- species (BiP NBD; [23]): 4937 µM
- species (BiP NBD; [24]): 4151 µM
- species (BiP NBD; [25]): 3560 µM
- species (BiP NBD; [26]): 3077 µM
- species (BiP NBD; [27]): 2698 µM
- species (BiP NBD; [28]): 1801 µM
- species (BiP NBD; [29]): 1548 µM
- species (BiP NBD; [30]): 1183 µM
- species (BiP NBD; [31]): 1030 µM
- species (BiP NBD; [32]): 902 µM
- kcat fitted average (BiP NBD; Supplementary Fig 11b, fitted): 0.065 s⁻¹
- species (BiP NBD; [33]): 4064 µM
- species (BiP NBD; [34]): 3620 µM
- species (BiP NBD; [35]): 3330 µM
- species (BiP NBD; [36]): 3106 µM
- species (BiP NBD; [37]): 2931 µM
- species (BiP NBD; [38]): 2788 µM
- species (BiP NBD; [39]): 2663 µM
- species (BiP NBD; [40]): 2548 µM
- species (BiP NBD; [41]): 2448 µM
- factor by which ATP unbinding is rarer than ATP hydrolysis (BiP NBD; koff1 versus kcat): 5 times
- koff (BiP NBD; [42]): 0.012 ± 0.003 s⁻¹
- kon (BiP NBD; [43]): 32 ± 9 mM⁻¹ s⁻¹
- Kd (BiP NBD; [44]): 0.38 ± 0.12 µM

Structure (SMILES): O=P(O)(O)O [Pi]
- species (BiP NBD; [1]): 25 µM
- species (BiP NBD; [2]): 25 µM
- species (BiP NBD; [3]): 25 µM
- species (BiP NBD; [4]): 25 µM
- species (BiP NBD; [5]): 25 µM
- species (BiP NBD; [6]): 25 µM
- species (BiP NBD; [7]): 25 µM
- species (BiP NBD; [8]): 25 µM
- species (BiP NBD; [9]): 25 µM
- species (BiP NBD; [10]): 25 µM
- species (BiP NBD; [11]): 25 µM
- species (BiP NBD; [12]): 25 µM
- species (BiP NBD; [13]): 1011 µM
- species (BiP NBD; [14]): 1602 µM
- species (BiP NBD; [15]): 2255 µM
- species (BiP NBD; [16]): 2820 µM
- species (BiP NBD; [17]): 3384 µM
- species (BiP NBD; [18]): 3735 µM
- species (BiP NBD; [19]): 4207 µM
- species (BiP NBD; [20]): 4544 µM
- species (BiP NBD; [21]): 4962 µM
- species (BiP NBD; [22]): 5335 µM
- species (BiP NBD; [23]): 5727 µM
- species (BiP NBD; [24]): 25 µM
- species (BiP NBD; [25]): 25 µM
- species (BiP NBD; [26]): 25 µM
- species (BiP NBD; [27]): 25 µM
- species (BiP NBD; [28]): 25 µM
- species (BiP NBD; [29]): 25 µM
- species (BiP NBD; [30]): 25 µM
- species (BiP NBD; [31]): 25 µM
- species (BiP NBD; [32]): 25 µM
- species (BiP NBD; [33]): 936 µM
- species (BiP NBD; [34]): 1380 µM
- species (BiP NBD; [35]): 1670 µM
- species (BiP NBD; [36]): 1894 µM
- species (BiP NBD; [37]): 2069 µM
- species (BiP NBD; [38]): 2212 µM
- species (BiP NBD; [39]): 2337 µM
- species (BiP NBD; [40]): 2452 µM
- species (BiP NBD; [41]): 2552 µM
- rate of phosphate release relative to ADP release from the ADP·Pi-bound state (BiP NBD; koff4 versus koff5): 2.5 times
- koff (BiP NBD; [42]): 1.3 ± 0.2 s⁻¹
- kon (BiP NBD; [43]): 5 ± 1 mM⁻¹ s⁻¹
- Kd (BiP NBD; [44]): 260 ± 20 µM
- koff (BiP NBD; reactions 4, 5 (koff4, koff5): release from NBD·ADP·Pi, T = 37 °C): 0.047 ± 0.01 s⁻¹
- kon (BiP NBD; reactions 4, 5: Pi binding to NBD·ADP, ADP binding to NBD·Pi, T = 37 °C): 0.20 ± 0.06 mM⁻¹ s⁻¹
- Kd (BiP NBD; reactions 4, 5: one ligand leaving NBD·ADP·Pi, the other stays bound, T = 37 °C): 235 ± 50 µM
